Assay results: patent publication US9655849B2, “Solid particulate compositions comprising coenzyme Q10” (Particle Dynamics International, LLC, priority 2011, dated 2017)
Where “and” joins values, the source holds several entries; their conditions need not be identical. Identical values can stand only once.

Test: CoQ10 Starting Material Particle Size Analysis, laser diffraction, dry dispersion
Type: physicochemical
Protocol: This example details the results of particle size analysis for a commercially available CoQ10 starting material. Dry samples of KANEKA Q10 powder were analyzed using laser diffraction to obtain a measurement of particle size characteristics.
Particle size analysis of the CoQ10 starting material was conducted using a dry dispersion method. A […] HELOS equipped with a RODOS dispersion module and a R3 lens was employed for the analysis. Prior to the analysis the sample was evaluated using optical microscopy. Particles were well dispersed and ranged in size from approximately 5 microns to approximately 90 microns.

[1] = dry powder, Avg. of analyses A-F
[2] = dry powder, single analyses A-F

x10, Particulate Size Distribution (Number Basis) [1]: 0.55 μm | x10, Particulate Size Distribution (Volume Basis) [1]: 4.76 μm | x50, Particulate Size Distribution (Number Basis) [1]: 0.77 μm | x50, Particulate Size Distribution (Volume Basis) [1]: 15.16 μm | x90, Particulate Size Distribution (Number Basis) [1]: 1.30 μm | x90, Particulate Size Distribution (Volume Basis) [1]: 40.52 μm | x95, Particulate Size Distribution (Number Basis) [1]: 1.78 μm | x95, Particulate Size Distribution (Volume Basis) [1]: 50.83 μm | x99, Particulate Size Distribution (Number Basis) [1]: 5.11 μm | x99, Particulate Size Distribution (Volume Basis) [1]: 71.32 μm | x10, Particulate Size Distribution (Number Basis) [2]: 0.55 μm | portion of the total volume attributable to particulates greater than 15 μm in diameter (volume basis): more than 50%
Compound: COC1=C(OC)C(=O)C(C/C=C(\C)CC/C=C(\C)CC/C=C(\C)CC/C=C(\C)CC/C=C(\C)CC/C=C(\C)CC/C=C(\C)CC/C=C(\C)CC/C=C(\C)CCC=C(C)C)=C(C)C1=O [KANEKA Q10]
x10, Particulate Size Distribution (Volume Basis) [2]: 4.99 μm and 5.21 μm and 4.63 μm and 4.16 μm and 4.77 μm and 4.80 μm | x50, Particulate Size Distribution (Volume Basis) [2]: 15.36 μm and 15.89 μm and 15.04 μm and 14.37 μm and 15.15 μm | x90, Particulate Size Distribution (Volume Basis) [2]: 40.65 μm and 41.41 μm and 40.36 μm and 39.46 μm and 40.75 μm and 40.46 μm | x95, Particulate Size Distribution (Number Basis) [2]: 1.79 μm and 1.74 μm and 1.77 μm and 1.80 μm and 1.78 μm | x95, Particulate Size Distribution (Volume Basis) [2]: 50.84 μm and 51.76 μm and 50.62 μm and 49.96 μm and 51.11 μm and 50.68 μm | x99, Particulate Size Distribution (Number Basis) [2]: 5.30 μm and 5.13 μm and 4.98 μm and 4.93 μm and 5.14 μm and 5.20 μm | x99, Particulate Size Distribution (Volume Basis) [2]: 71.36 μm and 71.75 μm and 71.16 μm and 70.79 μm and 71.66 μm and 71.20 μm
